Where two headings read alike, the source gives them in different places.

This assay relates to capacitative calcium entry (CCE) in IP3 receptor-deficient strain of cell line DT40.
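Further: intracellular Ca2+ read as 340/380 nm excitation ratio at 510 nm emission, stores emptied by thapsigargin without external Ca2+, then 2 mM CaCl2 added, inhibition of the ensuing Ca2+ rise.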

Description: (Assay of Capacitative Calcium Entry Inhibition)
Its 510 nm fluorescence obtained at 340 nm and 380 nm is measured and the fluorescence ratio F340/380 is measured to determine the intracellular calcium ion concentration. Next, thapsigargin (an endoplasmic reticulum calcium ion pump inhibitor) is allowed to act without calcium ion in an extracellular fluid to deplete an intracellular calcium store. Calcium chloride at a final concentration of 2 mM is added to the extracellular fluid. The IC50 value is calculated by estimating the effect of each compound on the degree of increase in the intracellular calcium concentration at the time of the addition.

As usually defined, the IC50 is the concentration at which inhibition is half-maximal. `NCCOB(c1ccccc1)c1ccccc1` [(2-aminoethoxy)diphenylborane, reference compound]: the IC50 amounted to 5 µM.

The term inhibition denotes the percentage by which the read-out fell short of the control. For the molecule `OB(c1ccccc1)c1ccc(Oc2ccc(B(O)c3ccccc3)cc2)cc1` [Example 1, Bis(4,4′-(phenylhydroxyboryl)phenyl) ether], for the setting “3 µM”, the inhibition turned out to be 50%.

Consider `OB(c1ccccc1)c1cccc(COCc2cccc(B(O)c3ccccc3)c2)c1` [Example 4], for which the inhibition was determined as 70% (0.1 µM), 95% (0.3 µM) and 100% (1 µM).

Take `NCCOB(c1ccccc1)c1cccc(COCc2cccc(B(OCCN)c3ccccc3)c2)c1` [Example 5, Bis(3,3′-(phenylaminoethoxyboryl)benzyl) ether]: the inhibition (0.03 µM) is 30%, the inhibition (0.1 µM) was determined as 95% and the inhibition (0.3 µM) turned out to be 100%.

For `OB(c1ccccc1)c1ccc(COCc2ccccc2B(O)c2ccccc2)cc1` [Example 12, (2-(Phenylhydroxyboryl)benzyl) (4-(phenylhydroxyboryl)benzyl) ether], the inhibition is 10% (0.3 µM), 80% (1 µM) and 100% (3 µM).

Consider `NCCOB(c1ccccc1)c1ccc(COCc2cccc(B(OCCN)c3ccccc3)c2)cc1` [Example 13, (3-(Phenylaminoethoxyboryl)benzyl) (4-(phenylaminoethoxyboryl)benzyl) ether], for which the inhibition amounted to 10% (0.1 µM), 80% (0.2 µM) and 100% (0.3 µM).

As to `NCCOB(c1ccccc1)c1cccc(COCc2ccccc2B(OCCN)c2ccccc2)c1` [Example 15, (2-(Phenylaminoethoxyboryl)benzyl) (3-(phenylaminoethoxyboryl)benzyl) ether], the inhibition was 100% (0.3 µM), 100% (1 µM) and 100% (3 µM).

Consider `Cc1ccc(B(OCCN)c2ccc(-c3ccc(B(OCCN)c4ccc(C)cc4)cc3)cc2)cc1` [Example 45, 4,4′-(4-Methylphenylaminoethoxyboryl)diphenyl], for which the inhibition (1 µM) was determined as 20% and the inhibition (3 µM) came out at 100%.

As for `OB(c1ccccc1)c1ccc(COc2ccc(B(O)c3ccccc3)cc2)cc1` [Example 51, (4-Phenylhydroxyborylphenyl) (4′-phenylhydroxyborylbenzyl) ether], the inhibition (1 µM) was 20% and the inhibition (3 µM) is 100%.

With `NCCOB(c1ccccc1)c1ccc(COc2ccc(B(OCCN)c3ccccc3)cc2)cc1` [Example 52, (4-Phenylaminoethoxyborylphenyl) (4′-phenylaminoethoxyborylbenzyl) ether], the inhibition (3 µM) was 100%.

Take `NCCOB(c1ccc(COCCOc2ccc(B(OCCN)c3cccs3)cc2)cc1)c1cccs1` [Example 53, (4-(2-Thiopheneaminoethoxyboryl)phenoxyethyl) (4′-(2-thiopheneaminoethoxyboryl)benzyl) ether]: the inhibition (1 µM) turned out to be 10%.

Turning to `OB(c1ccc(COc2ccc(B(O)c3ccc(C(F)(F)F)cc3)cc2)cc1)c1ccc(C(F)(F)F)cc1` [Example 54, (4-Trifluoromethylphenylhydroxyborylphenyl) (4′-trifluoromethylphenylhydroxyborylbenzyl) ether], the inhibition was found to be 60% (1 µM) and 100% (3 µM).

For `NCCOB(c1ccc(COc2ccc(B(OCCN)c3ccc(C(F)(F)F)cc3)cc2)cc1)c1ccc(C(F)(F)F)cc1` [Example 55], the inhibition by setting is: (0.3 µM) 0%; (1 µM) 20%; (3 µM) 100%.

Regarding `CC(C)(C)c1cc(B(OCCN)c2ccccc2)c2c(c1)C(C)(C)c1cc(C(C)(C)C)cc(B(OCCN)c3ccccc3)c1O2` [Example 60, 4,5-Di(phenylaminoethoxyboryl)-2,7-di-t-butyl-9,9-dimethylxanthrene], the inhibition by setting is: (1 µM) 20%; (3 µM) 100%.

For the molecule `CNCCOB(c1ccccc1)c1ccc(Oc2ccc(B(OCCNC)c3ccccc3)cc2)cc1` [Example 68, Bis(4,4′-(phenyl-N-methylaminoethoxyboryl)phenyl) ether], the inhibition worked out at 20% (0.3 µM) and 80% (1 µM).

For `CNCCOB(c1ccc(COc2ccc(B(OCCNC)c3ccc(C(F)(F)F)cc3)cc2)cc1)c1ccc(C(F)(F)F)cc1` [Example 84, (4′-Trifluoromethylphenyl-N-methylaminoethoxyboryl)-4-phenyl (4′-trifluoromethylphenyl-N-methylaminoethoxyboryl)-4-benzyl ether], the inhibition by setting is: (1 µM) 50%; (3 µM) 100%.

`CN(C)CCOB(c1ccccc1)c1cccc(COCc2cccc(B(OCCN(C)C)c3ccccc3)c2)c1` [Example 85, Bis(3,3′-(phenyl-N,N-dimethylaminoethoxyboryl)benzyl) ether]: the inhibition (1 µM) amounted to 10% and the inhibition (3 µM) is 90%.

With `c1ccc(B(OCc2ccccn2)c2ccc(COCc3ccc(B(OCc4ccccn4)c4ccccc4)cc3)cc2)cc1` [Example 88, Bis(4,4′-(phenyl-2-pyridylmethoxyboryl)benzyl) ether], the inhibition turned out to be 95% (1 µM) and 100% (3 µM).

As for `Cc1ccc(B(O)c2ccc(COCc3ccc(B(O)c4ccc(C)c(Cl)c4)cc3)cc2)cc1Cl` [Example 90, Bis(4,4′-(3-chloro-4-methylphenyl-hydroxyboryl)benzyl) ether], the inhibition is, setting by setting: (1 µM) 20%; (3 µM) 100%.

With `COc1ccc(B(OCCN)c2ccc(COCc3ccc(B(OCCN)c4ccc(OC)cc4)cc3)cc2)cc1` [Example 94, Bis(4,4′-(p-methoxyphenyl-aminoethoxyboryl)benzyl) ether], the inhibition (1 µM) worked out at 0% and the inhibition (3 µM) is 100%.

As to `CNCCOB(c1ccc(COCc2ccc(B(OCCNC)c3ccc(OC)cc3)cc2)cc1)c1ccc(OC)cc1` [Example 95, Bis(4,4′-(p-methoxyphenyl-N-methylaminoethoxyboryl)benzyl) ether], the inhibition by setting is: (1 µM) 80%; (3 µM) 80%.

With `Cc1ccc(B(OCCN)c2ccc(COCc3ccc(B(OCCN)c4ccc(C)c(Cl)c4)cc3)cc2)cc1Cl` [Example 102, Bis(4,4′-(3-chloro-4-methylphenyl-aminoethoxyboryl)benzyl) ether], the inhibition is, setting by setting: (1 µM) 30%; (3 µM) 100%.

As to `CNCCOB(c1ccc(COCc2ccc(B(OCCNC)c3ccc(C)c(Cl)c3)cc2)cc1)c1ccc(C)c(Cl)c1` [Example 103, Bis(4,4′-(3-chloro-4-methylphenyl-N-methylaminoethoxyboryl)benzyl) ether], the inhibition (1 µM) is 30% and the inhibition (3 µM) amounted to 80%.

`Cc1ccc(B(OCCN(C)C)c2ccc(COCc3ccc(B(OCCN(C)C)c4ccc(C)c(Cl)c4)cc3)cc2)cc1Cl` [Example 104, Bis(4,4′-(3-chloro-4-methylphenyl-N,N-dimethylaminoethoxyboryl)benzyl) ether]: the inhibition runs as follows: (1 µM) 20%; (3 µM) 100%.

Take `Cc1ccc(B(OCC2CCCCN2)c2ccc(COCc3ccc(B(OCC4CCCCN4)c4ccc(C)c(Cl)c4)cc3)cc2)cc1Cl` (stereo not shown) [Example 105, Bis(4,4′-(3-chloro-4-methylphenyl-2-piperidylmethyloxyboryl)benzyl) ether]: the inhibition (1 µM) came to 30% and the inhibition (3 µM) was determined as 100%.

These data come from US8017809B2, “Bisboron compound” (Japan Science and Technology Agency, priority 2005, dated 2011).
